Assay results: patent US5620416A, “Methods of using topical agents with systemically administered active agents” (priority 1995, dated 1997)

Experiment: Skin CDDP concentration after iontophoresis of a vasoactive agent with intravenous cisplatin infusion
Assay type: in vivo, female weanling Yorkshire pigs
Description: The ability of iontophoretically-delivered, vasoactive compounds to affect local cutaneous concentrations of a systemically delivered active agent was investigated in female weanling Yorkshire pigs. The effect of the timing of iontophoresis on tissue deposition of active agent was also investigated.
Study animals were assigned to receive iontophoresis either prior to, or after, attaining steady-state systemic concentrations of cisplatin (cisdiaminedichloroplatinum, CDDP). The iontophoresed agent was either a peripheral vasodilator (tolazoline), peripheral vasoconstrictor (norepinephrine), or saline.
Subjects were sedated with intramuscular ketamine/xylazine, and anesthesia was maintained with intravenous thiamylal. In each subject the inguinal area was divided into four quadrants, three of which received iontophoresis. One quadrant received iontophoresis of 0.4% tolazoline HCl (TOL); one received iontophoresis of 0.4% norepinephrine HCl (NOR); and one received iontophoresis of 50% saturated saline (SAL). The remaining quadrant served as a control (CON) and was not subjected to iontophoresis.
Iontophoretic current density was 0.2 mAmp/cm^2. Cisplatin (1.0 mg/ml) was infused via the saphenous vein at a rate of 0.03 mg/kg/min. […]

- skin CDDP concentrations among skin samples (in words) (iontophoresis after reaching steady-state CDDP, control, tolazoline, norepinephrine and saline electrodes): did not vary significantly
- skin CDDP concentration vs control skin (in words) (iontophoresis prior to steady-state CDDP, tolazoline p=0.01, norepinephrine p<0.001): significantly lower
SMILES: NC[C@H](O)c1ccc(O)c(O)c1 [Norepinephrine, norepinephrine]
